Several values for one entry are separate records, joined by “and”; a condition that tells them apart may be missing. Equal values may be shown once.
Experiments:
[1] = target: Glycogen synthase kinase-3 alpha (Homo sapiens, UniProt P49840); test: TR-FRET Assay
Method in brief: (§1)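 30 min preinc w/ cpd in assay buffer → kinase rxn → EDTA quench → add detection mix (40 nM SA-d2, 2 nM Tb-pSer641 Ab) → TR-FRET read.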

[2] = target: Glycogen synthase kinase-3 beta (Homo sapiens, UniProt P49841); test: TR-FRET Assay
Glycogen synthase kinase-3 beta, sequence (P49841 whole entry): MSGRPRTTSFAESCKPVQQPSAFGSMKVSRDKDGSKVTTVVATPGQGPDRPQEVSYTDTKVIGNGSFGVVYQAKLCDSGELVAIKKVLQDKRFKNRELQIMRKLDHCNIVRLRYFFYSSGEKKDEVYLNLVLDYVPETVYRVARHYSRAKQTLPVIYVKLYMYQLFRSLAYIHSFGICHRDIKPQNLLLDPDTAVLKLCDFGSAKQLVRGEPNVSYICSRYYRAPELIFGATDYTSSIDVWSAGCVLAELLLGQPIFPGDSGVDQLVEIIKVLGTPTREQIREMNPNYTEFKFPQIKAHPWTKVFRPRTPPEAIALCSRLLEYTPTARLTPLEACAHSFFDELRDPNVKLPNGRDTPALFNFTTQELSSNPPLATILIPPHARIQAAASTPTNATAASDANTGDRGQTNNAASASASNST
Method in brief: as §1

Glycogen synthase kinase-3 alpha, sequence (P49840 whole entry): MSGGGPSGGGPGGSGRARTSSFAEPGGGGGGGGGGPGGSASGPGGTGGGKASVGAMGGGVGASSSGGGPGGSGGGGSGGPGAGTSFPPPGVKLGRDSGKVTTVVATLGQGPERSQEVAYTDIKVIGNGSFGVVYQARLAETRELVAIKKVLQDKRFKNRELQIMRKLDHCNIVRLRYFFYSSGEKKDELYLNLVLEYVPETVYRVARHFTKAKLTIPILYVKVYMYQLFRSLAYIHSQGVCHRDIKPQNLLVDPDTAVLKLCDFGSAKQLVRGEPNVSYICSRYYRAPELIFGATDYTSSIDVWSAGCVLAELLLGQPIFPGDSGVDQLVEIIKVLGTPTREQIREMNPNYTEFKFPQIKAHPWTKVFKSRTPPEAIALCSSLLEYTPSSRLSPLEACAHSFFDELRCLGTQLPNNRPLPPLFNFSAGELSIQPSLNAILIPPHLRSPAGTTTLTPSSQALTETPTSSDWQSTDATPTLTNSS

IC50 [1] | IC50 [2] | SMILES
> 5 µM | > 5 µM | CC[C@@]1(c2cccc(C(F)(F)F)c2)C2=CN=NC2NC2=C1C(=O)N(CCOC)CC2 (stereo partly specified) [US20250313563, Compound 949600]
1 to 5 µM | > 5 µM | CC[C@@]1(c2cccc(-c3ccnc(C)c3)c2)C2=C(N=NC2)NC2=C1C[C@@H]1CC[C@H]2C1 [US20250313563, Compound 943920]
< 0.1 µM | 0.1 to 1 µM | CC[C@@H]1CCN1c1cccc([C@@]2(CC)C3=CN=NC3NC3=C2C(=O)CC(C)(C)C3)c1 (stereo partly specified) [US20250313563, Compound 911970]
< 0.1 µM | 1 to 5 µM | CCC1(c2cccc(-c3cnn(C)c3)c2)C2=CN=NC2NC2=C1C(=O)CC(C)C2 (stereo unspecified) [US20250313563, Compound 816752]
< 0.1 µM and 0.1 to 1 µM | 0.1 to 1 µM and 1 to 5 µM | CC[C@@]1(c2cccc(-c3ccnc(C)c3C)c2)C2=CN=NC2NC2=C1C(=O)NC(C)(C)C2 (stereo partly specified) [US20250313563, Compound 948184]
< 0.1 µM | 0.1 to 1 µM | CCC1(c2cccc(-c3cnn4c3CCC4)c2)C2=CN=NC2NC2=C1C(=O)CC(C)(C)C2 (stereo unspecified) [US20250313563, Compound 947494]
0.1 to 1 µM | 1 to 5 µM | CCCn1nccc1-c1cccc([C@@]2(CC)C3=CN=NC3NC3=C2C(=O)CC(C)(C)C3)c1 (stereo partly specified) [US20250313563, Compound 946094]
> 5 µM | > 5 µM | CC[C@@]1(c2cccc(C(F)(F)F)c2)C2=CN=NC2NC2=C1C(=O)N(c1cn(C)c(C)n1)CC2 (stereo partly specified) [US20250313563, Compound 952479]
0.1 to 1 µM | 0.1 to 1 µM | CC[C@@]1(c2cccc(-c3ccncc3)c2)C2=C(CC(C)(C)CC2=O)NC2N=NC(C(F)(F)F)=C21 (stereo partly specified) [US20250313563, Compound 917292]
0.1 to 1 µM | 0.1 to 1 µM | CC[C@@]1(c2cccc(S(=O)(=O)C3CC3)c2)C2=C(CC(C)(C)NC2=O)NC2N=NC(C(F)(F)F)=C21 (stereo partly specified) [US20250313563, Compound 948776]
< 0.1 µM | < 0.1 µM | CC1(C)CC(=O)C2=C(C1)NC1=C(CN=N1)[C@]21CCN(S(C)(=O)=O)C1 [US20250313563, Compound 942432]
> 5 µM | > 5 µM | CC1(C)CC(=O)C2=C(C1)NC1=C(CN=N1)C21CCCCC1=O (stereo unspecified) [US20250313563, Compound 912105]
< 0.1 µM | 0.1 to 1 µM | CCC1(c2cccc(N(C)C(=O)c3cnn(C)c3)c2)C2=CN=NC2NC2=C1C(=O)CC(C)(C)C2 (stereo unspecified) [US20250313563, Compound 912068]
0.1 to 1 µM | 1 to 5 µM | CC1(C)CC(=O)C2=C(C1)NC1=C(CN=N1)[C@]21CC[C@@H](c2ccncc2)CC1 [US20250313563, Compound 949320]
0.1 to 1 µM | 1 to 5 µM | CC[C@]1(c2cccc(-c3ccncc3C3CC3)c2)C2=CN=NC2NC2=C1C(=O)NC(C)(C)C2 (stereo partly specified) [US20250313563, Compound 948642]
< 0.1 µM | 0.1 to 1 µM | CC1(C)CC2=C(C(=O)N1)[C@@](C)(c1cccc(S(C)(=O)=O)c1)C1=C(N=NC1C1CC1)N2 (stereo partly specified) [US20250313563, Compound 114679]
0.1 to 1 µM | 0.1 to 1 µM | CC1(C)CC(=O)C2=C(C1)NC1N=NC=C1C21CCCN(CC(F)F)CC1 (stereo unspecified) [US20250313563, Compound 889574]
1 to 5 µM | 1 to 5 µM | CC[C@@]1(c2cccc(C(F)(F)F)c2)C2=C(CC(C)(C)CC2=O)NC2N=NC(Br)=C21 (stereo partly specified) [US20250313563, Compound 810464]
1 to 5 µM | > 5 µM | CC[C@]1(c2ccccc2)C2=CN=NC2NC2=C1C(=O)[C@H](C)C[C@H]2C (stereo partly specified) [US20250313563, Compound 865199]
0.1 to 1 µM | 1 to 5 µM | CC[C@@]1(c2cccc(-c3c(C)nnn3C)c2)C2=CN=NC2NC2=C1C(=O)CC(C)(C)C2 (stereo partly specified) [US20250313563, Compound 946100]
< 0.1 µM | < 0.1 µM | CC(=O)N1C[C@@]2(C[C@@]3(CO2)C2=C(N=NC2)NC2=C3C(=O)CC(C)(C)C2)[C@@H]1C [US20250313563, Compound 948438]
< 0.1 µM | 1 to 5 µM | CCC1(c2cccc(-c3ccnc(C)c3)c2)C2=C(CC(C)(C)NC2=O)NC2N=NC(F)=C21 (stereo unspecified) [US20250313563, Compound 948299]
< 0.1 µM | 0.1 to 1 µM | CC[C@]1(c2cccc(-c3ccnc(C)c3)c2)C2=CN=NC2NC2=C1C(=O)N[C@@H](C)C2 (stereo partly specified) [US20250313563, Compound 932658]
0.1 to 1 µM | 0.1 to 1 µM | O=C1C[C@]2(CCOC2)CC2=C1C1(CCOCC1)C1=C(N=NC1)N2 [US20250313563, Compound 901476]
> 5 µM | > 5 µM | CN1CCC2(CC1)C1=C(N=NC1)NC1=C2C(=O)CC(C)(C)C1 [US20250313563, Compound 826714]
< 0.1 µM | < 0.1 µM | CC1(C)CC(=O)C2=C(C1)NC1=C(CN=N1)C21COC2(CN(C(=O)CC3CC(F)(F)C3)C2)C1 (stereo unspecified) [US20250313563, Compound 947278]
> 5 µM | > 5 µM | CC[C@@]1(c2cccc(C(F)(F)F)c2)C2=CN=NC2NC2=C1C(=O)N(c1ccsc1)CC2 (stereo partly specified) [US20250313563, Compound 952636]

IC50 [1] | IC50 [2] | SMILES
0.1 to 1 µM | > 1.67 µM | CCC1(c2cccc(N3CCOCC3)c2)C2=CN=NC2NC2=C1C(=O)CC(C)(C)C2 (stereo unspecified) [US20250313563, Compound 801318]
< 0.1 µM and 0.1 to 1 µM | < 0.1 µM and 1 to 5 µM | CC[C@@]1(c2cccc(-c3ccncc3C3CC3)c2)C2=CN=NC2NC2=C1C(=O)NC(C)(C)C2 (stereo partly specified) [US20250313563, Compound 950059]
< 0.1 µM | 0.1 to 1 µM | CC[C@]1(c2ccccc2)C2=CN=NC2NC2=C1C(=O)CC1(CCCC1)C2 (stereo partly specified) [US20250313563, Compound 789562]
> 5 µM | > 5 µM | CC[C@]1(c2cccc(-c3cnn(Cc4cccc(C(F)(F)F)c4)c3)c2)C2=CN=NC2NC2=C1C(=O)NC(C)(C)C2 (stereo partly specified) [US20250313563, Compound 949513]
< 0.1 µM | 1 to 5 µM | CCC1(c2cccc(-c3cnn(C)n3)c2)C2=CN=NC2NC2=C1C(=O)CC(C)(C)C2 (stereo unspecified) [US20250313563, Compound 947492]
< 0.1 µM | < 0.1 µM | CC1(C)CC(=O)C2=C(C1)NC1=C(CN=N1)C21CCN(S(=O)(=O)c2cccc3c2CCCC3)CC1 [US20250313563, Compound 947470]
> 5 µM | > 5 µM | CC[C@@]1(c2cccc(-c3cc(C)nc(C)c3)c2)C2=CN=NC2NC2=C1C(=O)CC(C)(C)C2 (stereo partly specified) [US20250313563, Compound 913223]
< 0.1 µM | < 0.1 µM and 0.1 to 1 µM | CC[C@@]1(c2cccc(-c3cc(C)nn3C)c2)C2=C(CC(C)(C)CC2=O)NC2N=NC(C(F)(F)F)=C21 (stereo partly specified) [US20250313563, Compound 947384]
1 to 5 µM | > 5 µM | CC[C@]1(c2cccc(-c3ccnn3C)c2)C2=CN=NC2NC2=C1C(=O)NC1(CCS(=O)(=O)CC1)C2 (stereo partly specified) [US20250313563, Compound 949400]
< 0.1 µM | < 0.1 µM | Cn1ccc(S(=O)(=O)N2CCCC3(CC2)C2=CN=NC2NC2=C3C(=O)CC(C)(C)C2)n1 (stereo unspecified) [US20250313563, Compound 917138]
0.1 to 1 µM | 1 to 5 µM | C[C@@H]1C[C@H](C)C[C@]2(C1)C1=C(N=NC1)NC1=C2C(=O)CC(C)(C)C1 [US20250313563, Compound 884113]
< 0.1 µM | < 0.1 µM | CC1(C)CC(=O)C2=C(C1)NC1=C(CN=N1)C21CN(S(=O)(=O)c2ccc(F)cc2)C1 [US20250313563, Compound 917144]
< 0.1 µM | 0.1 to 1 µM | CC1(C)CC(=O)C2=C(C1)NC1N=NC=C1[C@@]21CO[C@@H](c2ccccc2)C1 (stereo partly specified) [US20250313563, Compound 946073]
1 to 5 µM | > 5 µM | CC[C@]1(c2cccc(-c3c(Cl)cncc3Cl)c2)C2=CN=NC2NC2=C1C(=O)NC(C)(C)C2 (stereo partly specified) [US20250313563, Compound 948824]
< 0.1 µM and 0.1 to 1 µM | 0.1 to 1 µM and 1 to 5 µM | CC[C@]1(c2cccc(C(F)(F)F)c2)C2=CN=NC2NC2=C1C(=O)N[C@H](C(C)(C)C)C2 (stereo partly specified) [US20250313563, Compound 945920]
< 0.1 µM | 0.1 to 1 µM | CC1(C)CC(=O)C2=C(C1)NC1=C(CN=N1)C21Cc2ccccc2C1 [US20250313563, Compound 897752]
> 5 µM | > 5 µM | Cn1cc(-c2cccc([C@@]3(C)C4=C(CC(C)(C)CC4=O)NC4=C3C(CC(C)(C)C)N=N4)c2)cn1 (stereo partly specified) [US20250313563, Compound 126367]
1 to 5 µM | > 5 µM | CCc1cc(-c2cccc([C@@]3(CC)C4=CN=NC4NC4=C3C(=O)NC(C)(C)C4)c2)ccn1 (stereo partly specified) [US20250313563, Compound 948360]
> 5 µM | > 5 µM | CC1(C)CC(=O)C2=C(C1)NC1=C(CN=N1)C21CN(Cc2ccccc2)C1 [US20250313563, Compound 929436]
1 to 5 µM | > 5 µM | CC[C@]1(c2cccc(-c3cc(C)nn3C)c2)C2=C(CC(C)(C)CC2=O)NC2N=NC(C(F)(F)F)=C21 (stereo partly specified) [US20250313563, Compound 947383]
> 5 µM | > 5 µM | CC[C@]1(c2cccc(-c3cnn(C)c3C#N)c2)C2=CN=NC2NC2=C1C(=O)NC(C)(C)C2 (stereo partly specified) [US20250313563, Compound 948814]
1 to 5 µM | > 5 µM | CC[C@@]1(c2cccc(-c3cc(C)ncc3OC)c2)C2=CN=NC2NC2=C1C(=O)NC(C)(C)C2 (stereo partly specified) [US20250313563, Compound 949512]
0.1 to 1 µM | 0.1 to 1 µM | CC[C@@]1(c2cccc(C(F)(F)F)c2)C2=C(NC3=NN=CC31)c1ccccc1C2=O (stereo partly specified) [US20250313563, Compound 949742]
< 0.1 µM | 0.1 to 1 µM | CCC1(c2cccc(N(C)c3ccc(C(F)(F)F)nc3)c2)C2=CN=NC2NC2=C1C(=O)CC(C)(C)C2 (stereo unspecified) [US20250313563, Compound 932634]
0.1 to 1 µM | 0.1 to 1 µM | C[C@@H]1CC(=O)C2=C(C1)NC1=C(CN=N1)C21CCOCC1 [US20250313563, Compound 912079]
> 5 µM | > 5 µM | CC[C@@]1(c2cccc(C(F)(F)F)c2)C2=CN=NC2NC2=C1C(=O)N[C@@H](C)C2 (stereo partly specified) [US20250313563, Compound 912099]

From BindingDB's records for patent US20250313563 (The Broad Institute, 2025)
